For 34 compounds, zone of inhibition, MIC and EC50 results are on record in ChEMBL document CHEMBL4130493, “An insight into the biological activities of heterocyclic-fatty acid hybrid molecules” (Eur J Med Chem, 2017).

In brackets after ≈: the same amount, converted by molar mass.

Assay [1] concerns Staphylococcus aureus. As to the kind of experiment: Antibacterial activity against Staphylococcus aureus MSSA 22 at 100 ug/mL incubated for 24 hrs by filter paper disc method. The assay is classed as functional. To be noted: MSSA 22, 24 h, read-out: DIZ.
Assay [2] relates to Bacillus subtilis. The experiment in a line: Antibacterial activity against Bacillus subtilis ATCC 6051 at 100 ug/mL incubated for 24 hrs by filter paper disc method. To be noted: ATCC 6051, 24 h, read-out: DIZ. The assay is classed as functional.
The test system of assay [3] is Escherichia coli. As to the kind of experiment: Antibacterial activity against Escherichia coli K-12 at 100 ug/mL incubated for 24 hrs by filter paper disc method. The class given is functional. To be noted: K-12, 24 h, read-out: DIZ.
Assay [4] has as its system Salmonella typhimurium. The experiment in a line: Antibacterial activity against Salmonella typhimurium MTCC98 at 100 ug/mL incubated for 24 hrs by filter paper disc method. The class given is functional, Salmonella enterica subsp. enterica serovar Typhimurium. To be noted: Salmonella enterica, MTCC98, 24 h; read-out: DIZ.
Assay [5] concerns Candida albicans. The experiment in a line: Antifungal activity against Candida albicans IOA-109 at 100 ug/mL incubated for 18 to 48 hrs by agar disc diffusion method. The assay is classed as functional. To be noted: read-out: DIZ. (In agar diffusion tests the substance spreads into inoculated agar from a disc or well.)
Assay [6] has as its system Escherichia coli. The experiment in a line: Antibacterial activity against Escherichia coli MTCC 40 incubated for 24 hrs by serial two-fold dilution method. The assay is classed as functional. To be noted: MTCC 40, 24 h.
Assay [7] has as its system Pseudomonas aeruginosa. As to the kind of experiment: Antibacterial activity against Pseudomonas aeruginosa MTCC 2453 incubated for 24 hrs by serial two-fold dilution method. The class given is functional. To be noted: MTCC 2453, 24 h.
Assay [8] has as its system Plasmodium falciparum. As to the kind of experiment: Antimalarial activity against Plasmodium falciparum infected in erythrocytes assessed as inhibition of increase in parasite density after 72 hrs. The assay is classed as functional, organism-based.

Take `CCCCC/C=C\CCC(O)CCCCCCCc1nc(-c2ccc(O)c(O)c2)n[nH]1` (stereo not given): the zone of inhibition at 100 µg/mL in assay [1] was 13.1 to 22.2 mm; in assay [2], 13.1 to 22.2 mm; in assay [3], 13.1 to 22.2 mm; in assay [4] it was 13.1 to 22.2 mm; in assay [5], 17.2 to 19 mm.
A word on the MIC: it is the smallest concentration in the dilution series that meets the test's criterion for growth inhibition. As to `CCCCCCCCCCCCCCCC(=O)NN1C(=O)CSC1c1ccc(Cl)cc1` (stereo not given), the MIC in assay [6] and in assay [7] was 0.35 to 0.7 µg/mL (≈ 0.749 to 1.5 µM) throughout.
For `CCCCC/C=C\CCC(O)CCCCCCCc1nc(-c2cccc(O)c2)n[nH]1` (stereo not given), the zone of inhibition at 100 µg/mL is 13.1 to 22.2 mm in assay [1]; 13.1 to 22.2 mm in assay [2]; 13.1 to 22.2 mm in assay [3]; 13.1 to 22.2 mm in assay [4]; 17.2 to 19 mm in assay [5].
For the compound `C=CCCCCCCCCc1nc(-c2ccccc2)n[nH]1`, the zone of inhibition at 100 µg/mL in assay [1] was 13.1 to 22.2 mm; in assay [2] it was 13.1 to 22.2 mm; in assay [3], 13.1 to 22.2 mm; in assay [4], 13.1 to 22.2 mm; in assay [5], 17.2 to 19 mm.
With `CCCCCCC(O)C/C=C\CCCCCCCc1nc(-c2ccc(O)c(O)c2)n[nH]1` (stereo not given), the zone of inhibition at 100 µg/mL lay in the range of 13.1 to 22.2 mm in assay [1]; 13.1 to 22.2 mm in assay [2]; 13.1 to 22.2 mm in assay [3]; 13.1 to 22.2 mm in assay [4]; 17.2 to 19 mm in assay [5].
Take `CCCCCCCC/C=C\CCCCCCCc1nc(-c2ccc(O)c(O)c2)n[nH]1`: the zone of inhibition at 100 µg/mL in assay [1] was in the range of 13.1 to 22.2 mm; in assay [2] it was 13.1 to 22.2 mm; in assay [3], 13.1 to 22.2 mm; in assay [4] it was 13.1 to 22.2 mm; in assay [5], 17.2 to 19 mm.
As to `CCCCCCCCCCCCCC(=O)NN1C(=O)CSC1c1ccccc1` (stereo not given), the MIC in assay [6] and in assay [7] was 0.35 to 0.7 µg/mL (≈ 0.865 to 1.73 µM) each time.
`CCCCCCCCCCCCCC(=O)NN1C(=O)CSC1c1ccc(Cl)cc1` (stereo not given): the minimal inhibitory concentration (MIC) in assay [6] and in assay [7] was 0.35 to 0.7 µg/mL (≈ 0.797 to 1.59 µM) each time.
In the case of `CCCCCCCCCCCCCC(=O)NN1C(=O)CSC1c1ccc(C)cc1` (stereo not given), the MIC in assay [6] and in assay [7] was 0.35 to 0.7 µg/mL (≈ 0.836 to 1.67 µM) in each case.
One may read the EC50 as the concentration needed to bring the measured effect to its halfway point. As for `C=C[C@H]1CN2CC[C@H]1C[C@H]2[C@H](OCCCCCCCCCCCC)c1ccnc2ccc(OC)cc12`, the EC50 in assay [8] was 7 to 20 µM.
Turning to `CCCCC/C=C\CCC(O)CCCCCCCc1nc(-c2ccccc2)n[nH]1` (stereo not given), the zone of inhibition at 100 µg/mL in assay [1] is 13.1 to 22.2 mm; in assay [2] it was 13.1 to 22.2 mm; in assay [3], 13.1 to 22.2 mm; in assay [4], 13.1 to 22.2 mm; in assay [5] it was 17.2 to 19 mm.
With `CCCCCCCCCCCCCC(=O)NN1C(=O)CSC1c1ccc(Br)cc1` (stereo not given), the MIC in assay [6] and in assay [7] was 0.35 to 0.7 µg/mL (≈ 0.724 to 1.45 µM) in each case.
As for `CCCCCCCCCCCCCCCC(=O)NN1C(=O)CSC1c1ccc(O)cc1` (stereo not given), the MIC in assay [6] and in assay [7] was 0.35 to 0.7 µg/mL (≈ 0.78 to 1.56 µM) in each case.
As to `CCCCCCCCCCCCCC(=O)NN1C(=O)CSC1c1ccc([N+](=O)[O-])cc1` (stereo not given), the MIC in assay [6] and in assay [7] was 0.35 to 0.7 µg/mL (≈ 0.778 to 1.56 µM) each time.
For the compound `CCCCCCC(O)C/C=C\CCCCCCCc1nc(-c2cccc(O)c2)n[nH]1` (stereo not given), the zone of inhibition at 100 µg/mL was 13.1 to 22.2 mm in assay [1]; 13.1 to 22.2 mm in assay [2]; 13.1 to 22.2 mm in assay [3]; 13.1 to 22.2 mm in assay [4]; 17.2 to 19 mm in assay [5].
As to `C=C[C@H]1CN2CC[C@H]1C[C@H]2[C@H](OCCCCCCCCCCCCCCCCCC)c1ccnc2ccc(OC)cc12`, in assay [8], the EC50 lay within 7 to 20 µM.
With `CCCCCCCCCCCCCCCC(=O)NN1C(=O)CSC1c1ccc(OC)cc1` (stereo not given), the MIC in assay [6] and in assay [7] was 0.35 to 0.7 µg/mL (≈ 0.756 to 1.51 µM) in each case.
For the compound `CCCCCCCCCCCCCCCC(=O)NN1C(=O)CSC1c1ccc(C)cc1` (stereo not given), the MIC in assay [6] and in assay [7] was 0.35 to 0.7 µg/mL (≈ 0.784 to 1.57 µM) each time.
On to `CCCCCCCCCCCCCCCC(=O)NN1C(=O)CSC1c1ccccc1` (stereo not given), for which the MIC in assay [6] and in assay [7] was 0.35 to 0.7 µg/mL (≈ 0.809 to 1.62 µM) in each case.
On to `CCCCCCCCCCCCCCCC(=O)NN1C(=O)CSC1c1ccc([N+](=O)[O-])cc1` (stereo not given), for which the MIC in assay [6] and in assay [7] was 0.35 to 0.7 µg/mL (≈ 0.733 to 1.47 µM) throughout.
For the compound `CCCCCCCCCCCCCC(=O)NN1C(=O)CSC1c1ccc(O)cc1` (stereo not given), the MIC in assay [6] and in assay [7] was 0.35 to 0.7 µg/mL (≈ 0.832 to 1.66 µM) in each case.
For the compound `C=C[C@H]1CN2CC[C@H]1C[C@H]2[C@H](O/C=C/C=C/C=C/C=C/C=C/CCCCCCCCCC)c1ccnc2ccc(OC)cc12`, in assay [8], the EC50 was 7 to 20 µM.
For `CCCCCCCCCCCCCC(=O)NN1C(=O)CSC1c1ccc(F)cc1` (stereo not given), the MIC in assay [6] and in assay [7] was 0.35 to 0.7 µg/mL (≈ 0.828 to 1.66 µM) in each case.
In the case of `CCCCCCCC/C=C\CCCCCCCc1nc(-c2cccc(O)c2)n[nH]1`, the zone of inhibition at 100 µg/mL was 13.1 to 22.2 mm in assay [1]; 13.1 to 22.2 mm in assay [2]; 13.1 to 22.2 mm in assay [3]; 13.1 to 22.2 mm in assay [4]; 17.2 to 19 mm in assay [5].
Turning to `CCCCCCCCCCCCCCCC(=O)NN1C(=O)CSC1c1ccc(Br)cc1` (stereo not given), the minimal inhibitory concentration (MIC) in assay [6] and in assay [7] was 0.35 to 0.7 µg/mL (≈ 0.684 to 1.37 µM) throughout.
For the compound `C=CCCCCCCCCc1nc(-c2ccc(O)c(O)c2)n[nH]1`, the zone of inhibition at 100 µg/mL in assay [1] was 13.1 to 22.2 mm; in assay [2] it was 13.1 to 22.2 mm; in assay [3], 13.1 to 22.2 mm; in assay [4], 13.1 to 22.2 mm; in assay [5], 17.2 to 19 mm.
Take `CCCCCCCCCCCCCCCC(=O)NN1C(=O)CSC1c1ccc(F)cc1` (stereo not given): the MIC in assay [6] and in assay [7] was 0.35 to 0.7 µg/mL (≈ 0.777 to 1.55 µM) in each case.
Turning to `CCCCCCCC/C=C\CCCCCCCc1nc(-c2ccccc2)n[nH]1`, the zone of inhibition at 100 µg/mL in assay [1] was in the range of 13.1 to 22.2 mm; in assay [2], 13.1 to 22.2 mm; in assay [3], 13.1 to 22.2 mm; in assay [4], 13.1 to 22.2 mm; in assay [5] it was 17.2 to 19 mm.
With `CCCCCCCCCCCCCC(=O)NN1C(=O)CSC1c1ccc(OC)cc1` (stereo not given), the MIC in assay [6] and in assay [7] was 0.35 to 0.7 µg/mL (≈ 0.805 to 1.61 µM) throughout.
`CCCCCCCCCCCCCCCCCc1nc(-c2ccccc2)n[nH]1`: the zone of inhibition at 100 µg/mL is 13.1 to 22.2 mm in assay [1]; 13.1 to 22.2 mm in assay [2]; 13.1 to 22.2 mm in assay [3]; 13.1 to 22.2 mm in assay [4]; 17.2 to 19 mm in assay [5].
As to `CCCCCCCCCCCCCCCCCc1nc(-c2cccc(O)c2)n[nH]1`, the zone of inhibition at 100 µg/mL in assay [1] is 13.1 to 22.2 mm; in assay [2], 13.1 to 22.2 mm; in assay [3] it was 13.1 to 22.2 mm; in assay [4] it was 13.1 to 22.2 mm; in assay [5], 17.2 to 19 mm.
`CCCCCCC(O)C/C=C\CCCCCCCc1nc(-c2ccccc2)n[nH]1` (stereo not given): the zone of inhibition at 100 µg/mL was in the range of 13.1 to 22.2 mm in assay [1]; 13.1 to 22.2 mm in assay [2]; 13.1 to 22.2 mm in assay [3]; 13.1 to 22.2 mm in assay [4]; 17.2 to 19 mm in assay [5].
For `CCCCCCCCCCCCCCCCCc1nc(-c2ccc(O)c(O)c2)n[nH]1`, the zone of inhibition at 100 µg/mL in assay [1] was in the range of 13.1 to 22.2 mm; in assay [2], 13.1 to 22.2 mm; in assay [3], 13.1 to 22.2 mm; in assay [4], 13.1 to 22.2 mm; in assay [5], 17.2 to 19 mm.
As to `C=CCCCCCCCCc1nc(-c2cccc(O)c2)n[nH]1`, the zone of inhibition at 100 µg/mL in assay [1] lay within 13.1 to 22.2 mm; in assay [2], 13.1 to 22.2 mm; in assay [3] it was 13.1 to 22.2 mm; in assay [4], 13.1 to 22.2 mm; in assay [5], 17.2 to 19 mm.
